Literature values, collected in patent US20150174235A1, “VACCINE” (Bionor Immuno AS, priority 2012, published 2015).

System: HIV-specific T-cells
Details: for IL-2 production by CD8 T-cells / lytic capacity of polyfunctional HIV specific CD8+ T cells / number of polyfunctional CD4+ T-cells / proliferation of CD4+ T cells / Gag antigen epitopes recognized: IMiD present during in vitro T-cell stimulation; for Gag antigen epitopes recognized: also at lower antigen peptide concentrations; for IFN-γ production by CD8+ T-cells and CD4 T-cells: after antigen stimulation, IMiD present

| SMILES | IL-2 production by CD8 T-cells | lytic capacity of polyfunctional HIV specific CD8+ T cells | number of polyfunctional CD4+ T-cells | proliferation of CD4+ T cells | Gag antigen epitopes recognized | IFN-γ production by CD8+ T-cells and CD4 T-cells |
| --- | --- | --- | --- | --- | --- | --- |
| Nc1cccc2c1CN(C1CCC(=O)NC1=O)C2=O (stereo not drawn) [Lenalidomide] | increased | enhanced | increased | reduced | more | detectable |
| Nc1cccc2c1C(=O)N(C1CCC(=O)NC1=O)C2=O (stereo not drawn) [pomalidomide] | increased | enhanced | increased | reduced | more | detectable |
